The source of these data is ChEMBL document CHEMBL1127700, “Iron(III)-chelating resins. IX. Antibacterial activity of a water-insoluble iron(III)-chelating resin” (1994).

One assay concerns Listeria innocua. The experiment in a line: Tested in vitro for percent inhibition of the growth of Listeria inocua at concentration of 20 uM. It counts as functional.
The next assay relates to Escherichia coli. The experiment in a line: Tested in vitro for percent inhibition of the growth of Escherichia coli at concentration of 20 uM. The class given is functional.

As for `CCC(=O)NCCn1ccc(=O)c(O)c1C`, the Growth response stood at 14% with Listeria innocua and 0% in the assay on Escherichia coli.
In the same order, the values of `C=CC(=O)NCCn1ccc(=O)c(O)c1C` are 13% and 0%.
